Results: US7713994B2 (Wyeth LLC, priority 2005, dated 2010)
Like-named read-outs stand apart in the source and are kept apart here.

Columns and labels:
[1] = biological target: T1, cyclin D1/cdk 4 enzyme (Homo sapiens, UniProt P11802); experiment: CDK4 ELISA kinase assay (phospho-Rb ser 795 detection); assay type: biochemical
T1 construct: made in house; host or cells: Sf9 insect cells, recombinant baculovirus
How it was run: (§1)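 Inhibition was derived from A450 relative to control wells lacking compound, following an anti-phospho-Rb Ser795 sandwich of HRP detection. The reactions combined coated GST-Rb fragment, 200 μM ATP and baculovirus-expressed cyclin/CDK enzymes, incubated for 1 h at 30° C.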

[2] = biological target: T2, cyclin E/CDK2 enzyme (Homo sapiens, UniProt P24941); experiment: CDK2 ELISA kinase assay (phospho-Rb ser 795 detection); assay type: biochemical
T2 construct: made in house; host or cells: Sf9 insect cells, recombinant baculovirus
How it was run: as §1

[3] = biological target: T3, cyclin B/CDK1 enzyme (Homo sapiens, UniProt P06493); experiment: CDK1 ELISA kinase assay (phospho-Rb ser 795 detection); assay type: biochemical
T3 construct: purchased New England BioLabs; host or cells: Sf9 insect cells, recombinant baculovirus
T3 sequence (P06493 whole entry): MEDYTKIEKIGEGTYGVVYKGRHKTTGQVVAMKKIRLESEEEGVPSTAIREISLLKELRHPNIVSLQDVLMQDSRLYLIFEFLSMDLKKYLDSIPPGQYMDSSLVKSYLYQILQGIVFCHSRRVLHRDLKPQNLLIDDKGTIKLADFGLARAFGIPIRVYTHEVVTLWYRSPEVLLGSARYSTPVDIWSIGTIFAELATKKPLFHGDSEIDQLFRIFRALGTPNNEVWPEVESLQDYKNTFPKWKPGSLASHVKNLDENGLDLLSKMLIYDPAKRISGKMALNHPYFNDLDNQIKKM
T3 sequence (P14635 whole entry partner): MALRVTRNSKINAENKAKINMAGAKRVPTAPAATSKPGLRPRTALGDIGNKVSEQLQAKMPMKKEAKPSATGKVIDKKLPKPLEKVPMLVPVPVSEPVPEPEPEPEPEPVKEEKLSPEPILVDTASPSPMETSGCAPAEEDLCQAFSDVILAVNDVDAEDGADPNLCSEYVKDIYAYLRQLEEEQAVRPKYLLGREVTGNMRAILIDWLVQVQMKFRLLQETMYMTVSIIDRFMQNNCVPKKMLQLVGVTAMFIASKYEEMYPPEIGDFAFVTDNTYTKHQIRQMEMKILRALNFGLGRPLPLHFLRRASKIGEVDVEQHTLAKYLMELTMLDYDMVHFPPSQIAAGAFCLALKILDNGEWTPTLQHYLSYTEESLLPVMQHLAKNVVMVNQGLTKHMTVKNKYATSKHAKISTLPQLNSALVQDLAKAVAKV
How it was run: as §1

[4] = system: BT474; experiment: Cytotoxicity assay (SRB), BT474; assay type: cell-based
How it was run: (§2)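 BT474 (12000 cells/well) was treated for 6 days, whereas HCT-116 (4000), LoVo (6000) and MCF-7 (6000) were treated for 3 days, all in RPMI 1640 containing 5% FBS. Surviving-cell percentage came from SRB dye binding measured at 540 nm.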

[5] = system: HCT-116; experiment: Cytotoxicity assay (SRB), HCT-116; assay type: cell-based; details: Homo sapiens, HCT-116, 72 h, HCT116 cells, SRB, read-out: In Vitro Cellular Activity IC50 HCT116
How it was run: as §2

[6] = system: LoVo; experiment: Cytotoxicity assay (SRB), LoVo; assay type: cell-based; details: Homo sapiens, LoVo, 72 h, LoVo cells, SRB, read-out: In Vitro Cellular Activity IC50 LOVO
How it was run: as §2

[7] = system: MCF-7; experiment: Cytotoxicity assay (SRB), MCF-7; assay type: cell-based; details: Homo sapiens, MCF7, 72 h, MCF-7 cells, SRB, read-out: In Vitro Cellular Activity IC50 MCF-7
How it was run: as §2

[8] = biological target: T4, Cyclin D1/CDK6 (Homo sapiens, UniProt Q00534); experiment: Cyclin D1/CDK6 Elisa; assay type: biochemical; details: 200 μM ATP
T4 construct: made in house; host or cells: Sf9 insect cells, recombinant baculovirus
T4 sequence (Q00534 whole entry, species assumed): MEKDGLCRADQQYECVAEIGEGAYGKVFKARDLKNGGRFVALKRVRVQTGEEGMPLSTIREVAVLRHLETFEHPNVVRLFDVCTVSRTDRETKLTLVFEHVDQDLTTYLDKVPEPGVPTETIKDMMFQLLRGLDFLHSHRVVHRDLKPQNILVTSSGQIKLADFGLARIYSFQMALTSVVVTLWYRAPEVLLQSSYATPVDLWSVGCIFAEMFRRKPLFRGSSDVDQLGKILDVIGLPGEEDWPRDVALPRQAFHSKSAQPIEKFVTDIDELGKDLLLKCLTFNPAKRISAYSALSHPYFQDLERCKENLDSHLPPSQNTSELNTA
T4 sequence (P24385 whole entry partner, species assumed): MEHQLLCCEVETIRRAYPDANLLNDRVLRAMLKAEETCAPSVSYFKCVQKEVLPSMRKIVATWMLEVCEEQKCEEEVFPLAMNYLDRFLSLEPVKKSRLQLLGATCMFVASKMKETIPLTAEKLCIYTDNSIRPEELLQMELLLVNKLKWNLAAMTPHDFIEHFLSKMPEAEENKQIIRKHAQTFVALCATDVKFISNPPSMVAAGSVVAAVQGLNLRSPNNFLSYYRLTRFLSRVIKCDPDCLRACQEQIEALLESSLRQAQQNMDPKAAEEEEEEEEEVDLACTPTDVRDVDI
Description: Cyclin D1/CDK6 was expressed in insect cells (Sf9) infected with recombinant baculovirus and partially purified using ammonium sulfate fractionation. Test compounds were diluted in 20% DMSO/20 mM HEPES, pH 7.5 and serial dilutions were prepared (5 concentrations; 0.005-50 µM). High-binding ELISA microtiter plates (Costar) were coated with the kinase substrate (glutathione-S-transferase (GST) fusion of C-terminal fragment of the retinoblastoma susceptibility gene product (Rb). Non-specific binding sites were blocked with Superblock in Tris-buffered saline (TBS; Pierce). Kinase reactions contained the test inhibitor, 200 μM ATP, 0.5 mg/ml bovine serum albumin (BSA; Sigma), and 0.1 μl cyclin D1/cdk 6. Reaction volumes were adjusted to 30 μl with kinase assay buffer (50 mM HEPES, pH 7.5, 10 mM MgCl2, 5% glycerol, 10 mM 2-mercaptoethanol), and plates were incubated at 30° C. for 1 hour. Reactions were terminated by aspiration, and non-specific sites were blocked with blocking buffer (TBS containing 0.1% Tween-20 and 5% nonfat dry milk). Phoshporylation of the substrate was detected using phospho-Rb specific antibodies (ser-795) (Cell Signalling Technologies) and anti-rabbit IgG/horseradish peroxidase conjugates (Amersham Life Science) using TMB as substrate. Colourimetric reactions were stopped with 2N sulphuric acid and the absorbance was measured at 450 nm (Molecular Devices). IC50 values were determined from inhibition plots.

[9] = system: SK-Br-3; experiment: Cytotoxicity assay (SRB), SK-Br-3; assay type: cell-based; details: Homo sapiens; SK-Br-3 cells; read-out: In Vitro Cellular Activity IC50 SK-Br-3
[10] = system: SK-UT-1B; experiment: Cytotoxicity assay (SRB), SK-UT-1B; assay type: cell-based; details: Homo sapiens, Skut1B; SK-UT-1B cells; read-out: In Vitro Cellular Activity IC50 SK-UT-1B
[11] = In Vitro Enzyme Assays, 200 μM ATP, read-out: CDK4 IC50
[12] = In Vitro Enzyme Assays, read-out: CDK2 IC50
[13] = In Vitro Enzyme Assays, read-out: CDK1 IC50
[14] = Homo sapiens, BT-474, 144 h, BT474 cells, SRB, 6 days; read-out: In Vitro Cellular Activity IC50 BT474
[15] = In Vitro Enzyme Assay, cyclin E/CDK2, read-out: CDK2 IC50
[16] = Homo sapiens, BT-474, 144 h, BT474 cells, 6 days, SRB; read-out: In Vitro Cellular Activity IC50 BT474
[17] = In Vitro Enzyme Assay, cyclin D1/cdk 4, read-out: CDK4 IC50
[18] = In Vitro Enzyme Assay, cyclin B/CDK1, read-out: CDK1 IC50

T1 sequence (P11802 whole entry, species assumed): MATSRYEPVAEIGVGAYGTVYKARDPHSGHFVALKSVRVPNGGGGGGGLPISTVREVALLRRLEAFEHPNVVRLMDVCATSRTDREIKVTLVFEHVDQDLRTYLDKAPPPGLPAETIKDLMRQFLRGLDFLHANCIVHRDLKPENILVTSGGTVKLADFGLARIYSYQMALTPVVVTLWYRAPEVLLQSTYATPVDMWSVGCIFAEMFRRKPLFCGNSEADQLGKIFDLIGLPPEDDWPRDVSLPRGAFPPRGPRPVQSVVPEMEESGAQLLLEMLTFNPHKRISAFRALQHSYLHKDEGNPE
T1 sequence (P24385 whole entry partner, species assumed): as the sequence (P24385 whole entry partner, species assumed) above

Row | SMILES | IC50 [1, 11] [µM] | IC50 [2, 12] [µM] | IC50 [3, 13] [µM] | IC50 [4, 14] [µM] | IC50 ([5]; three days) [µM] | IC50 ([6]; three days) [µM] | IC50 ([7]; three days) [µM] | IC50 [8] [µM] | melting point [°C] | IC50 [2, 15] [µM] | IC50 [4, 16] [µM] | IC50 ([5]; 3 days) [µM] | IC50 ([6]; 3 days) [µM] | IC50 ([7]; 3 days) [µM] | IC50 [9] [µM] | IC50 [10] [µM] | IC50 [1, 17] [µM] | IC50 [3, 18] [µM]
1 | COc1ccc(CN/C=C2\C(=O)NC(=O)c3cccc(Br)c32)cc1O [Example 84, (4Z)-5-Bromo-4-{[(3-hydroxy-4-methoxybenzyl)amino]methylene}isoquinoline-1,3(2H,4H)-dione] | 0.94 | 3.1 | 8.1 | 2.1 | 3.1 | 4.6 | 6.7 | 0.07 | 204 to 206 |  |  |  |  |  |  |  |  | 
2 | O=C1NC(=O)c2ccc(I)cc2/C1=C/Nc1ccc(CN2CCCCC2)cc1 [Example 82, (4Z)-6-Iodo-4-({[4-(piperidin-1-ylmethyl)phenyl]amino}methylene)isoquinoline-1,3(2H,4H)-dione] | 0.3 | 20.4 | > 50 | 0.6 | 2.7 | 3.1 | 1 | 0.03 | 202 to 203 |  |  |  |  |  |  |  |  | 
3 | O=C1NC(=O)c2ccccc2/C1=C/NCc1ccc(O)c(O)c1 [Example 550, 4-[(3,4-Dihydroxy-benzylamino)-methylene]-4H-isoquinoline-1,3-dione] |  |  |  |  |  |  |  |  |  | 12.5 | 36.5 | 26.6 | 46.5 | 39.1 | 32.4 | 17.3 |  | 
4 | COc1cc(CN/C=C2\C(=O)NC(=O)c3ccc(-c4ccccc4)cc32)cc(O)c1OC [Example 86] | 0.002 | > 50 | > 50 | 3.2 | 4.5 | 3.7 | 5.1 | 0.001 | 250 to 251 |  |  |  |  |  |  |  |  | 
5 | COc1ccc(CN/C=C2\C(=O)NC(=O)c3ccc(-n4cccc4)cc32)cc1O [Example 71] | 0.004 |  | 9.7 | 3.8 | 4.7 | 3 | 7.8 | 0.001 | 252 to 253 |  |  |  |  |  |  |  |  | 
6 | O=C1NC(=O)c2ccc(Cl)cc2/C1=C/Nc1ccc(CN2CCCCC2)cc1 [Example 55, (4Z)-6-Chloro-4-({[4-(piperidin-1-ylmethyl)phenyl]amino}methylene)isoquinoline-1,3(2H,4H)-dione] | 2.5 | > 50 | > 50 | 11 | 5.7 | 7.7 | 7 | 0.12 | 225 to 226 |  |  |  |  |  |  |  |  | 
7 | O=C1NC(=O)c2ccccc2C1=CNc1ccc(O)c2ncccc12 [Example 569, 4-[(8-Hydroxy-quinolin-5-ylamino)-methylene]-4H-isoquinoline-1,3-dione] |  |  |  |  |  |  |  |  |  | 6.2 | 14.1 | 7.1 | > 50 | 7.2 | 8.9 | 2.2 | 11.2 | 34.8
8 | COc1ccc(CN/C=C2\C(=O)NC(=O)c3ccc(I)cc32)cc1O [Example 80, (4Z)-6-Iodo-4-{[(3-hydroxy-4-methoxybenzyl)amino]methylene}isoquinoline-1,3(2H,4H)-dione] | 0.01 | 0.87 | 6 | 1.7 | 2 | 1.5 | 3.7 | 0.002 |  |  |  |  |  |  |  |  |  | 
9 | Nc1ccc(NC=C2C(=O)NC(=O)c3ccccc32)cc1 [Example 545, 4-[(4-Amino-phenylamino)-methylene]-4H-isoquinoline-1,3-dione] |  |  |  |  |  |  |  |  |  | 2.5 | > 50 | 40.1 | > 50 | > 50 | > 50 | 38.9 | 17.9 | > 50
10 | O=C1NC(=O)c2ccc(-n3cccc3)cc2/C1=C/Nc1ccc(CN2CCCCC2)cc1 [Example 74] |  |  | > 50 | 3.3 | 2.7 | 2.4 | 2.1 | 0.02 | 207 to 208 |  |  |  |  |  |  |  |  | 
11 | COc1cc(CN/C=C2\C(=O)NC(=O)c3ccc(Br)cc32)cc(O)c1OC [compound 78] | 0.007 | > 50 | > 50 | 42 | > 50 | > 50 | 32.5 | 0.002 |  |  |  |  |  |  |  |  |  | 
